# Data as given in ChEMBL document CHEMBL1142001, “Novel and orally bioavailable inducible nitric oxide synthase inhibitors: synthesis and evaluation of optically active 4,5-dialkyl-2-iminoselenazolidine derivatives” (Bioorg Med Chem Lett, 2005).
# What was measured:
# [1] = target: Nitric oxide synthase 1 (Homo sapiens, UniProt P29475); assay: Inhibitory concentration against neuronal […]
# [2] = target: Nitric oxide synthase, inducible (Homo sapiens, UniProt P35228); assay: Inhibitory concentration against inducible […]
# Nitric oxide synthase, inducible, sequence (P35228 whole entry): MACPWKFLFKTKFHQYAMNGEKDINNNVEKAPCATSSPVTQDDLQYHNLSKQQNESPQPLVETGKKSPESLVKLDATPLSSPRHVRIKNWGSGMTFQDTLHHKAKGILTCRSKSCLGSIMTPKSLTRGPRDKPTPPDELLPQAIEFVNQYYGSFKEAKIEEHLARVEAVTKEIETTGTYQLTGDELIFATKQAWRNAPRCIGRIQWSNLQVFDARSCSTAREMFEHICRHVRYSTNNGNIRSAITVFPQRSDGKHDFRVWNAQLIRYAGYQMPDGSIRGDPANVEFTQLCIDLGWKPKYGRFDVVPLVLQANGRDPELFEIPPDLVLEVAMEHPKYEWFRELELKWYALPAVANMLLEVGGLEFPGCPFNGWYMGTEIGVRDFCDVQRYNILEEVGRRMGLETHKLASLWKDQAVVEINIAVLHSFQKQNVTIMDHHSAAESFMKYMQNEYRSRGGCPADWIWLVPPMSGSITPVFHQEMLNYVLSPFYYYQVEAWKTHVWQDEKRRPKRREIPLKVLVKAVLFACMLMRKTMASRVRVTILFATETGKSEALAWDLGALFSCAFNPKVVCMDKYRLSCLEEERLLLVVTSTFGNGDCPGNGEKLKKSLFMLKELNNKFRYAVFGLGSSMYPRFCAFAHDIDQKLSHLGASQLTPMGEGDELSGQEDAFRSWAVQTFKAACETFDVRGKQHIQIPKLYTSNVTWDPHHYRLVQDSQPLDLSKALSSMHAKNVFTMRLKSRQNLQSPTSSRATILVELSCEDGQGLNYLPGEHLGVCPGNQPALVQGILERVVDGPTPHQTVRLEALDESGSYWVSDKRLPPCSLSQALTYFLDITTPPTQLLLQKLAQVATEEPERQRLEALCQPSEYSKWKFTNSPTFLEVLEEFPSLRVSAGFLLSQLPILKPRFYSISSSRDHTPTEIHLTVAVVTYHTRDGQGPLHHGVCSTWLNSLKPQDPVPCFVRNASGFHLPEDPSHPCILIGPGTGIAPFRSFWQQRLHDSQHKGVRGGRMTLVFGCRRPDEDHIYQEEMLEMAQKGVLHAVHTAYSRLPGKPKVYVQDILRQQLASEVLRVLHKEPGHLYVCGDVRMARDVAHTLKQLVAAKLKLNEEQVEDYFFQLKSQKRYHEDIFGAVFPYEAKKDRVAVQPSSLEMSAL
# [3] = Half life value of compound (0.3 mg/kg) on oral administration to rats; type: ADME, organism-based; details: rat, in vivo
# [4] = Clearance rate (0.3 mg/kg) on intravenous administration to rats; type: ADME, organism-based; details: rat, in vivo
# [5] = Cmax of compound (0.3 mg/kg) on oral administration to rats; type: ADME, organism-based; set-up: dose 0.3 mg/kg, route oral; details: rat, in vivo
# [6] = Area under concentration time curve value in rat was determined at a intravenous dosage of 0.3 mg/kg; type: ADME, organism-based; set-up: dose 0.3 mg/kg, route intravenous; details: in vivo
# [7] = Half life value of compound (0.3 mg/kg) on intravenous administration to […]; type: ADME, organism-based; details: rat, in vivo
# [8] = Tmax of compound (0.3 mg/kg) on oral administration to rats; type: ADME, organism-based; details: rat, in vivo
# [9] = Area under the concentration time curve value of compound was determined in rats after oral dosage of 0.3 mg/kg; type: ADME, organism-based; set-up: dose 0.3 mg/kg, route oral; details: rat, in vivo
# [10] = system: Mus musculus; assay: Inhibitory dose (p.o.) tested against plasma nitrite/nitrate levels in LPS-treated mice; type: functional; details: po, read-out: ID50 (the source's name)
# [11] = Oral bioavailability of compound (0.3 mg/kg) on oral administration to rats; type: ADME, organism-based; details: rat, in vivo, read-out: Bioavailabiility
# Nitric oxide synthase 1, sequence (P29475 whole entry): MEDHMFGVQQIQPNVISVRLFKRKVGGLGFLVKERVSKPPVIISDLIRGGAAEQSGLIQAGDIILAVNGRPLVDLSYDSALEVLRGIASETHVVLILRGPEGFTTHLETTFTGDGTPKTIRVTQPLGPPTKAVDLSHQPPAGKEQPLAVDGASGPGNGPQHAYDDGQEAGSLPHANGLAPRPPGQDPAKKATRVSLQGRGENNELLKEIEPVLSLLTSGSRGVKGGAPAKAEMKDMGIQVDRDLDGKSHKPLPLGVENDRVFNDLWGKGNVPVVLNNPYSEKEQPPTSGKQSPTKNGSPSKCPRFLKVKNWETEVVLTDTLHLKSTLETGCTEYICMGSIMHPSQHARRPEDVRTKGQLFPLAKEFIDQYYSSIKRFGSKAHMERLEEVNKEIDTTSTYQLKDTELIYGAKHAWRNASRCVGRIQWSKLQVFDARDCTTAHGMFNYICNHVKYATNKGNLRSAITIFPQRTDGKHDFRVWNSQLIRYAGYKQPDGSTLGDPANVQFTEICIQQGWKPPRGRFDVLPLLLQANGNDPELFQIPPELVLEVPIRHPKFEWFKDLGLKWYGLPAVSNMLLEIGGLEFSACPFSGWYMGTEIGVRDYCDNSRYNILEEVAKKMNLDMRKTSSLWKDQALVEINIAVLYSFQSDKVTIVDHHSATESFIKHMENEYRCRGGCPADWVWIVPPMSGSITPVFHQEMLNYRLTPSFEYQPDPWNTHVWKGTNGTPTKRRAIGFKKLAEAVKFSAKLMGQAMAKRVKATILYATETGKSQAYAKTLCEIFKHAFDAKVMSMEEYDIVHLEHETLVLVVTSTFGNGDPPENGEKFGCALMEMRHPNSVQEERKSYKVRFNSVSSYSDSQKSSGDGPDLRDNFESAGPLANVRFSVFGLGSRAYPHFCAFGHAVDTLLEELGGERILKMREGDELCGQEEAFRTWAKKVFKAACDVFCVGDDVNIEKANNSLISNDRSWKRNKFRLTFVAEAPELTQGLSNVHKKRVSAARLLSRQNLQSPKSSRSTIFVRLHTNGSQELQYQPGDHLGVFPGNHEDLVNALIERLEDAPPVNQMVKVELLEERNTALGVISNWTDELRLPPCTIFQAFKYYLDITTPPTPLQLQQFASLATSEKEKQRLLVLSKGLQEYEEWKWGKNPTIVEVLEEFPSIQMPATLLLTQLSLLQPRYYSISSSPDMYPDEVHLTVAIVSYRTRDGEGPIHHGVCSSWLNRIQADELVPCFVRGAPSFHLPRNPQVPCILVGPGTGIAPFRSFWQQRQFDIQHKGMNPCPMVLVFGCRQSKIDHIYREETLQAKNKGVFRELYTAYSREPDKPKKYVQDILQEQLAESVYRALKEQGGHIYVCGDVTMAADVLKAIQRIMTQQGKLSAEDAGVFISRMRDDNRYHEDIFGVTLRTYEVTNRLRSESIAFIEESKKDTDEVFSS
Compound,IC50 [1] [µM],IC50 [2] [µM],also measured
CC[C@@H]1[Se]C(N)=N[C@@H]1C,1.3,0.066,
CC[C@H]1[Se]C(N)=N[C@@H]1C,0.79,0.0093,half-life [3]: 72 min; clearance [4]: 55.5 mL/min/kg; Cmax [5]: 45 ng/mL; AUC [6]: 117 ng·h/mL; half-life [7]: 57 min; Tmax [8]: 30 min; AUC [9]: 45 ng·h/mL; ED50 [10]: 0.3 mg/kg; bioavailability [11]: 73%
CC[C@@H]1N=C(N)[Se][C@@H]1C,0.74,0.08,
CC[C@H]1N=C(N)[Se][C@@H]1C,0.092,0.0094,
CC[C@H]1N=C(N)[Se][C@H]1C,0.28,0.021,
CC[C@H]1SC(N)=N[C@@H]1C,0.38,0.0066,
CC[C@@H]1[Se]C(N)=N[C@H]1C,0.35,0.034,
CC[C@H]1[Se]C(N)=N[C@H]1C,6.9,0.34,
CC[C@@H]1N=C(N)[Se][C@H]1C,0.28,0.021,
